Source: ChEMBL document CHEMBL5331053, “Defining the structure-activity relationship for a novel class of allosteric MKP5 inhibitors” (Eur J Med Chem, 2022)

Molecular target: T1, Dual specificity protein phosphatase 10 (Homo sapiens, UniProt Q9Y6W6)
T1 sequence (Q9Y6W6 whole entry): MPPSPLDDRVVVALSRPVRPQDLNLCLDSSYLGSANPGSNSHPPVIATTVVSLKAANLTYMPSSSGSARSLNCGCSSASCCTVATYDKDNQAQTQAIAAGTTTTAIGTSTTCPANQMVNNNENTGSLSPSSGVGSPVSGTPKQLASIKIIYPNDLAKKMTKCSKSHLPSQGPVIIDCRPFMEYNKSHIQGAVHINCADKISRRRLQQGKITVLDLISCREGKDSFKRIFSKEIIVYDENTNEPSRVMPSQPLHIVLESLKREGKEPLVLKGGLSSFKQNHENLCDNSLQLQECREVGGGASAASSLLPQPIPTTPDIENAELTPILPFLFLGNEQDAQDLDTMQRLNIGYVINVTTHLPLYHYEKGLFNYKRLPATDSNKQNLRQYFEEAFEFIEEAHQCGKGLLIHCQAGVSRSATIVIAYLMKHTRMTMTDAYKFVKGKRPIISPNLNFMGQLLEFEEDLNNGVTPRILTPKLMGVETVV
Experiment: Inhibition of MKP5 catalytic domain (unknown origin) expressed in Escherichia coli BL21 (DE3) cells assessed as p38alpha MAPK phosphopeptide dephosphorylation using phosphopeptide as substrate incubated for 15 mins followed by substrate addition by malachite green dye based analysis

| Structure (SMILES) | IC50 [µM] |
| --- | --- |
| CCc1csc2c1-c1nc(SCC(=O)C(C)(C)C)ncc1CC2 | 5 |
| CSc1scc2c1-c1nc(SCC(=O)C(C)(C)C)ncc1CC2 | 2.8 |
| CCN(C)C(=O)CSc1ncc2c(n1)-c1c(csc1SC)CC2 | 81 |
| CC(C)(C)C(=O)CSc1ncc2c(n1)-c1ccsc1CC2 | 7.1 |
| CC(C)(C)C(=O)CSc1ncc2c(n1)-c1cccnc1CC2 | 76 |
| CCCc1csc2c1-c1nc(SCC(=O)C(C)(C)C)ncc1CC2 | 11 |
| CC(=O)N1Cc2cnc(SCC(=O)C(C)(C)C)nc2-c2ccccc21 | 150 |
| CC(C)(C)C(=O)CSc1ncc2cnc3ccccc3c2n1 | 59 |
| Cc1ccc2c(c1)-c1nc(SCC(=O)C(C)(C)C)ncc1CC2 | 7.5 |
| CC(C)(C)C(=O)CSc1nccc(-c2cccnc2)n1 | 100 |
| CC(C)(C)C(=O)CSc1ncc2c(n1)-c1cc(Cl)ccc1CC2 | 4 |
| CC(C)(C)C(=O)CSc1ncc2c(n1)-c1ccccc1CC2 | 6.2 |
| CC(C)(C)C(=O)CSc1nccc(-c2ccccc2)n1 | 27 |

Molecular target: T1, Dual specificity protein phosphatase 10
Experiment: Inhibition of human MKP5 catalytic domain (320 to 467 residues) expressed in Escherichia coli BL21 (DE3) cells by MST assay

| Structure (SMILES) | IC50 [µM] |
| --- | --- |
| CSc1scc2c1-c1nc(SCC(=O)C(C)(C)C)ncc1CC2 | 3.8 |
